Assay results: ChEMBL document CHEMBL4007388, “Synthesis and antiproliferative activity of monocationic arylthiophene derivatives” (Eur J Med Chem, 2017)

Key:
CCRF-CEM = assay: Growth inhibition of human CCRF-CEM cells incubated for 48 hrs by sulforhodamine B assay; format: functional
HL-60(TB) = assay: Growth inhibition of human HL-60(TB) cells incubated for 48 hrs by sulforhodamine B assay; format: functional; settings: HL-60, 48 h
K562 = assay: Growth inhibition of human K562 cells incubated for 48 hrs by sulforhodamine B assay; format: functional; settings: K562, 48 h
MOLT-4 = assay: Growth inhibition of human MOLT4 cells incubated for 48 hrs by sulforhodamine B assay; format: functional; settings: MOLT-4, 48 h
RPMI-8226 = assay: Growth inhibition of human RPMI8226 cells incubated for 48 hrs by sulforhodamine B assay; format: functional; settings: RPMI-8226, 48 h
SR = assay: Growth inhibition of human SR cells incubated for 48 hrs by sulforhodamine B assay; format: functional
HOP-62 = assay: Growth inhibition of human HOP62 cells incubated for 48 hrs by sulforhodamine B assay; format: functional; settings: HOP-62, 48 h
NCI-H322M = assay: Growth inhibition of human NCI-H322M cells incubated for 48 hrs by sulforhodamine B assay; format: functional
NCI-H522 = assay: Growth inhibition of human NCI-H522 cells incubated for 48 hrs by sulforhodamine B assay; format: functional; settings: NCI-H522, 48 h
COLO 205 = assay: Growth inhibition of human COLO205 cells incubated for 48 hrs by sulforhodamine B assay; format: functional; settings: COLO 205, 48 h
HCC 2998 = assay: Growth inhibition of human HCC2998 cells incubated for 48 hrs by sulforhodamine B assay; format: functional; settings: HCC 2998, 48 h
HCT-116 = assay: Growth inhibition of human HCT116 cells incubated for 48 hrs by sulforhodamine B assay; format: functional; settings: HCT-116, 48 h
HCT-15 = assay: Growth inhibition of human HCT15 cells incubated for 48 hrs by sulforhodamine B assay; format: functional; settings: HCT-15, 48 h
HT-29 = assay: Growth inhibition of human HT-29 cells incubated for 48 hrs by sulforhodamine B assay; format: functional; settings: HT-29, 48 h
KM12 = assay: Growth inhibition of human KM12 cells incubated for 48 hrs by sulforhodamine B assay; format: functional; settings: KM12, 48 h
SW-620 = assay: Growth inhibition of human SW620 cells incubated for 48 hrs by sulforhodamine B assay; format: functional; settings: SW-620, 48 h
SF-539 = assay: Growth inhibition of human SF539 cells incubated for 48 hrs by sulforhodamine B assay; format: functional; settings: SF-539, 48 h
SNB-19 = assay: Growth inhibition of human SNB19 cells incubated for 48 hrs by sulforhodamine B assay; format: functional; settings: SNB-19, 48 h
U-251 = assay: Growth inhibition of human U251 cells incubated for 48 hrs by sulforhodamine B assay; format: functional; settings: U-251, 48 h
LOX IMVI = assay: Growth inhibition of human LOXIMVI cells incubated for 48 hrs by sulforhodamine B assay; format: functional
M14 = assay: Growth inhibition of human M14 cells incubated for 48 hrs by sulforhodamine B assay; format: functional; settings: M14, 48 h
MDA-MB-435 = assay: Growth inhibition of human MDA-MB-435 cells incubated for 48 hrs by sulforhodamine B assay; format: functional; settings: MDA-MB-435, 48 h
SK-MEL-28 = assay: Growth inhibition of human SK-MEL-28 cells incubated for 48 hrs by sulforhodamine B assay; format: functional; settings: SK-MEL-28, 48 h
UACC-257 = assay: Growth inhibition of human UACC257 cells incubated for 48 hrs by sulforhodamine B assay; format: functional; settings: UACC-257, 48 h
UACC-62 = assay: Growth inhibition of human UACC62 cells incubated for 48 hrs by sulforhodamine B assay; format: functional; settings: UACC-62, 48 h
IGROV-1 = assay: Growth inhibition of human IGROV1 cells incubated for 48 hrs by sulforhodamine B assay; format: functional; settings: IGROV-1, 48 h
OVCAR-3 = assay: Growth inhibition of human OVCAR3 cells incubated for 48 hrs by sulforhodamine B assay; format: functional; settings: OVCAR-3, 48 h
OVCAR-5 = assay: Growth inhibition of human OVCAR5 cells incubated for 48 hrs by sulforhodamine B assay; format: functional; settings: OVCAR-5, 48 h
OVCAR-8 = assay: Growth inhibition of human OVCAR8 cells incubated for 48 hrs by sulforhodamine B assay; format: functional; settings: OVCAR-8, 48 h
NCI/ADR-RES = assay: Growth inhibition of human NCI/ADR-RES cells incubated for 48 hrs by sulforhodamine B assay; format: functional
SK-OV-3 = assay: Growth inhibition of human SKOV3 cells incubated for 48 hrs by sulforhodamine B assay; format: functional; settings: SK-OV-3, 48 h
786-0 = assay: Growth inhibition of human 786-O cells incubated for 48 hrs by sulforhodamine B assay; format: functional; settings: 786-0, 48 h
A498 = assay: Growth inhibition of human A498 cells incubated for 48 hrs by sulforhodamine B assay; format: functional; settings: A498, 48 h
ACHN = assay: Growth inhibition of human ACHN cells incubated for 48 hrs by sulforhodamine B assay; format: functional
CAKI-1 = assay: Growth inhibition of human Caki1 cells incubated for 48 hrs by sulforhodamine B assay; format: functional; settings: CAKI-1, 48 h
RXF 393 = assay: Growth inhibition of human RXF393 cells incubated for 48 hrs by sulforhodamine B assay; format: functional; settings: RXF 393, 48 h
SN12C = assay: Growth inhibition of human SN12C cells incubated for 48 hrs by sulforhodamine B assay; format: functional
UO-31 = assay: Growth inhibition of human UO31 cells incubated for 48 hrs by sulforhodamine B assay; format: functional; settings: UO-31, 48 h
PC-3 = assay: Growth inhibition of human PC3 cells incubated for 48 hrs by sulforhodamine B assay; format: functional; settings: PC-3, 48 h
DU-145 = assay: Growth inhibition of human DU145 cells incubated for 48 hrs by sulforhodamine B assay; format: functional; settings: DU-145, 48 h
BT-549 = assay: Growth inhibition of human BT549 cells incubated for 48 hrs by sulforhodamine B assay; format: functional; settings: BT-549, 48 h
MDA-MB-468 = assay: Growth inhibition of human MDA-MB-468 cells incubated for 48 hrs by sulforhodamine B assay; format: functional; settings: MDA-MB-468, 48 h
WI-38 = assay: Cytotoxicity against human WI38 cells assessed as reduction in cell viability after 24 hrs by MTT assay; format: cell-based; settings: WI-38, 24 h
WISH = assay: Cytotoxicity against human WISH cells assessed as reduction in cell viability after 24 hrs by MTT assay; format: cell-based
[1] = Antioxidant activity assessed as superoxide dismutase-like activity by measuring inhibition of superoxide radical anion production at 2 uM by NBT reduction assay relative to control; format: functional
Escherichia coli = assay: Induction of Escherichia coli genomic DNA cleavage after 1 hr by agarose gel electrophoresis method
[2] = Growth inhibition of human NCI60 cells at 10 uM after 48 hrs by SRB assay relative to control; values are per cent of control; settings: NCI60, 48 h

N=C(N)c1ccc(-c2ccc(-c3ccc(F)cc3)s2)cc1
GI50 (CCRF-CEM): 1820 nM
GI50 (HL-60(TB)): 679 nM
GI50 (K562): 268 nM
GI50 (MOLT-4): 1580 nM
GI50 (RPMI-8226): 799 nM
GI50 (SR): 307 nM
GI50 (HOP-62): 1580 nM
GI50 (NCI-H322M): 1330 nM
GI50 (NCI-H522): 1870 nM
GI50 (COLO 205): 204 nM
GI50 (HCC 2998): 492 nM
GI50 (HCT-116): 1580 nM
GI50 (HCT-15): 252 nM
GI50 (HT-29): 323 nM
GI50 (KM12): 1340 nM
GI50 (SW-620): 386 nM
GI50 (SF-539): 1620 nM
GI50 (SNB-19): 1930 nM
GI50 (U-251): 457 nM
GI50 (LOX IMVI): 164 nM
GI50 (M14): 1600 nM
GI50 (MDA-MB-435): 1660 nM
GI50 (SK-MEL-28): 1570 nM
GI50 (UACC-257): 2580 nM
GI50 (UACC-62): 1650 nM
GI50 (IGROV-1): 1790 nM
GI50 (OVCAR-3): 1710 nM
GI50 (OVCAR-5): 1550 nM
GI50 (OVCAR-8): 2110 nM
GI50 (NCI/ADR-RES): 1770 nM
GI50 (SK-OV-3): 1610 nM
GI50 (786-0): 1470 nM
GI50 (A498): 1420 nM
GI50 (ACHN): 1560 nM
GI50 (CAKI-1): 1670 nM
GI50 (RXF 393): 1480 nM
GI50 (SN12C): 1590 nM
GI50 (UO-31): 1580 nM
GI50 (PC-3): 1590 nM
GI50 (DU-145): 1630 nM
GI50 (BT-549): 1650 nM
GI50 (MDA-MB-468): 1260 nM
IC50 (WI-38): 197 µM
IC50 (WISH): 232 µM
inhibition [1]: 59.6%
Activity (Escherichia coli): Dose-dependent effect
growth percent at 10 µM [2]: -78.7%

COc1cc(OC)cc(-c2ccc(-c3ccc(C(=N)N)cc3)s2)c1
GI50 (CCRF-CEM): 1880 nM
GI50 (HL-60(TB)): 1900 nM
GI50 (K562): 418 nM
GI50 (MOLT-4): 1650 nM
GI50 (RPMI-8226): 1460 nM
GI50 (SR): 231 nM
GI50 (HOP-62): 1900 nM
GI50 (NCI-H322M): 1690 nM
GI50 (NCI-H522): 1960 nM
GI50 (COLO 205): 1330 nM
GI50 (HCC 2998): 1820 nM
GI50 (HCT-116): 1760 nM
GI50 (HCT-15): 1220 nM
GI50 (HT-29): 1090 nM
GI50 (KM12): 1840 nM
GI50 (SW-620): 1950 nM
GI50 (SF-539): 1750 nM
GI50 (SNB-19): 1970 nM
GI50 (U-251): 1670 nM
GI50 (LOX IMVI): 924 nM
GI50 (M14): 1730 nM
GI50 (MDA-MB-435): 1700 nM
GI50 (SK-MEL-28): 1790 nM
GI50 (UACC-257): 2760 nM
GI50 (UACC-62): 1870 nM
GI50 (IGROV-1): 2110 nM
GI50 (OVCAR-3): 1950 nM
GI50 (OVCAR-5): 1900 nM
GI50 (OVCAR-8): 2480 nM
GI50 (NCI/ADR-RES): 1970 nM
GI50 (SK-OV-3): 2080 nM
GI50 (786-0): 1870 nM
GI50 (A498): 1730 nM
GI50 (ACHN): 1770 nM
GI50 (CAKI-1): 1810 nM
GI50 (RXF 393): 1810 nM
GI50 (SN12C): 1970 nM
GI50 (UO-31): 1770 nM
GI50 (PC-3): 1800 nM
GI50 (DU-145): 1770 nM
GI50 (BT-549): 1800 nM
GI50 (MDA-MB-468): 1680 nM
IC50 (WI-38): 73.9 µM
IC50 (WISH): 87.2 µM
inhibition [1]: 57%
Activity (Escherichia coli): Dose-dependent effect
growth percent at 10 µM [2]: -74.1%
